Measured values taken from ChEMBL document CHEMBL4152291, “Synthesis and biological activities of dithiocarbamates containing 2(5H)-furanone-piperazine” (Eur J Med Chem, 2018).

Tests used:
[1] = Growth inhibition of human LO2 cells at 0.01 ug/ml after 72 hrs by MTT assay relative to control; assay type: cell-based, L02; conditions: read-out: GI
SMMC-7721 [2] = experiment: Growth inhibition of human SMMC7721 cells at 2.5 ug/ml after 72 hrs by MTT assay relative to control; assay type: functional; conditions: SMMC-7721, 72 h, read-out: GI
SMMC-7721 [3] = experiment: Growth inhibition of human SMMC7721 cells at 0.5 ug/ml after 72 hrs by MTT assay relative to control; assay type: functional; conditions: SMMC-7721, 72 h, read-out: GI
SMMC-7721 [4] = experiment: Growth inhibition of human SMMC7721 cells at 0.1 ug/ml after 72 hrs by MTT assay relative to control; assay type: functional; conditions: SMMC-7721, 72 h, read-out: GI
[5] = Growth inhibition of human LO2 cells at 0.1 ug/ml after 72 hrs by MTT assay relative to control; assay type: cell-based, L02; conditions: read-out: GI
SMMC-7721 [6] = experiment: Growth inhibition of human SMMC7721 cells at 5 ug/ml after 72 hrs by MTT assay relative to control; assay type: functional; conditions: SMMC-7721, 72 h, read-out: GI
[7] = Growth inhibition of human LO2 cells at 2.5 ug/ml after 72 hrs by MTT assay relative to control; assay type: cell-based, L02; conditions: read-out: GI
[8] = Growth inhibition of human LO2 cells at 5 ug/ml after 72 hrs by MTT assay relative to control; assay type: cell-based, L02; conditions: read-out: GI
[9] = Growth inhibition of human LO2 cells at 0.5 ug/ml after 72 hrs by MTT assay relative to control; assay type: cell-based, L02; conditions: read-out: GI
SMMC-7721 [10] = experiment: Growth inhibition of human SMMC7721 cells at 0.01 ug/ml after 72 hrs by MTT assay relative to control; assay type: functional; conditions: SMMC-7721, 72 h, read-out: GI
HeLa [11] = experiment: Growth inhibition of human HeLa cells at 100 ug/ml after 72 hrs by MTT assay relative to control; assay type: functional; conditions: read-out: GI
HeLa [12] = experiment: Growth inhibition of human HeLa cells at 50 ug/ml after 72 hrs by MTT assay relative to control; assay type: functional; conditions: read-out: GI
HeLa [13] = experiment: Growth inhibition of human HeLa cells at 6.25 ug/ml after 72 hrs by MTT assay relative to control; assay type: functional; conditions: read-out: GI
HeLa [14] = experiment: Cytotoxicity against human HeLa cells assessed as inhibition of cell proliferation after 72 hrs by MTT assay; assay type: functional, cell-based
HeLa [15] = experiment: Growth inhibition of human HeLa cells at 12.5 ug/ml after 72 hrs by MTT assay relative to control; assay type: functional; conditions: read-out: GI
HeLa [16] = experiment: Growth inhibition of human HeLa cells at 25 ug/ml after 72 hrs by MTT assay relative to control; assay type: functional; conditions: read-out: GI
L02 = experiment: Cytotoxicity against human LO2 cells assessed as inhibition of cell proliferation after 72 hrs by MTT assay; assay type: cell-based; conditions: L02, 72 h
HeLa [17] = experiment: Cytotoxicity against human HeLa cells; assay type: functional, cell-based
SMMC-7721 [18] = experiment: Induction of apoptosis in human SMMC7721 cells assessed as necrotic cells at 5 ug/ml after 72 hrs by Annexin-V-FITC/propidium iodide staining based flow cytometry (reference value: 0.39 to 0.5%); assay type: functional
SMMC-7721 [19] = experiment: Induction of apoptosis in human SMMC7721 cells assessed as late apoptotic cells at 0.5 ug/ml after 72 hrs by Annexin-V-FITC/propidium iodide staining based flow cytometry (reference value: 3.34 to 3.62%); assay type: functional
SMMC-7721 [20] = experiment: Induction of apoptosis in human SMMC7721 cells assessed as increase in late apoptotic cells after 72 hrs by Annexin-V-FITC/propidium iodide staining based flow cytometry; assay type: functional, cell-based
SMMC-7721 [21] = experiment: Induction of apoptosis in human SMMC7721 cells assessed as early apoptotic cells at 0.5 ug/ml after 72 hrs by Annexin-V-FITC/propidium iodide staining based flow cytometry (reference value: 2.61 to 3.3%); assay type: functional
SMMC-7721 [22] = experiment: Induction of apoptosis in human SMMC7721 cells assessed as necrotic cells at 0.5 ug/ml after 72 hrs by Annexin-V-FITC/propidium iodide staining based flow cytometry (reference value: 0.39 to 0.5%); assay type: functional
SMMC-7721 [23] = experiment: Induction of apoptosis in human SMMC7721 cells assessed as early apoptotic cells at 0.1 ug/ml after 72 hrs by Annexin-V-FITC/propidium iodide staining based flow cytometry (reference value: 2.61 to 3.3%); assay type: functional
SMMC-7721 [24] = experiment: Induction of apoptosis in human SMMC7721 cells assessed as necrotic cells at 0.1 ug/ml after 72 hrs by Annexin-V-FITC/propidium iodide staining based flow cytometry (reference value: 0.39 to 0.5%); assay type: functional
SMMC-7721 [25] = experiment: Induction of apoptosis in human SMMC7721 cells assessed as live cells at 0.5 ug/ml after 72 hrs by Annexin-V-FITC/propidium iodide staining based flow cytometry (reference value: 92.87 to 93.39%); assay type: functional
SMMC-7721 [26] = experiment: Induction of apoptosis in human SMMC7721 cells assessed as early apoptotic cells at 5 ug/ml after 72 hrs by Annexin-V-FITC/propidium iodide staining based flow cytometry (reference value: 2.61 to 3.3%); assay type: functional
SMMC-7721 [27] = experiment: Induction of apoptosis in human SMMC7721 cells assessed as late apoptotic cells at 5 ug/ml after 72 hrs by Annexin-V-FITC/propidium iodide staining based flow cytometry (reference value: 3.34 to 3.62%); assay type: functional
SMMC-7721 [28] = experiment: Induction of apoptosis in human SMMC7721 cells assessed as increase in early apoptotic cells after 72 hrs by Annexin-V-FITC/propidium iodide staining based flow cytometry; assay type: functional, cell-based
SMMC-7721 [29] = experiment: Induction of apoptosis in human SMMC7721 cells assessed as late apoptotic cells at 0.1 ug/ml after 72 hrs by Annexin-V-FITC/propidium iodide staining based flow cytometry (reference value: 3.34 to 3.62%); assay type: functional
SMMC-7721 [30] = experiment: Induction of apoptosis in human SMMC7721 cells assessed as live cells at 0.1 ug/ml after 72 hrs by Annexin-V-FITC/propidium iodide staining based flow cytometry (reference value: 92.87 to 93.39%); assay type: functional
SMMC-7721 [31] = experiment: Induction of apoptosis in human SMMC7721 cells assessed as live cells at 5 ug/ml after 72 hrs by Annexin-V-FITC/propidium iodide staining based flow cytometry (reference value: 92.87 to 93.39%); assay type: functional

SMILES	inhibition at 72 h, 0.01 ug/ml [1]	inhibition of growth at 2.5 µg/mL (SMMC-7721 [2])	inhibition of growth at 0.5 µg/mL (SMMC-7721 [3])	inhibition of growth at 0.1 µg/mL (SMMC-7721 [4])	inhibition at 72 h, 0.1 ug/ml [5]	inhibition of growth at 5 µg/mL (SMMC-7721 [6])	inhibition at 72 h, 2.5 ug/ml [7]	inhibition at 72 h, 5 ug/ml [8]	inhibition at 72 h, 0.5 ug/ml [9]	inhibition of growth at 0.01 µg/mL (SMMC-7721 [10])	inhibition of growth at 100 µg/mL (HeLa [11])	inhibition of growth at 50 µg/mL (HeLa [12])	inhibition of growth at 6.25 µg/mL (HeLa [13])	Activity (HeLa [14])	IC50 (HeLa [14])	inhibition of growth at 12.5 µg/mL (HeLa [15])	inhibition of growth at 25 µg/mL (HeLa [16])	other results
CC[C@]1(O)C[C@H]2CN(CCc3c([nH]c4ccccc34)[C@@](C(=O)OC)(c3cc4c(cc3OC)N(C=O)[C@H]3[C@@](O)(C(=O)OC)[C@H](OC(C)=O)[C@]5(CC)C=CCN6CC[C@]43[C@@H]65)C2)C1 [VINCRISTINE]	1.6%	45.7%	23.9%	17.7%	1.39%	68.5%	11.5%	16.5%	7.26%	12.3%	–	–	–	–	–	–	–	–
C=CCSC(=S)N1CCN(C2=C(Br)C(=O)O[C@@H]2O[C@@H]2C[C@H](C)CC[C@H]2C(C)C)CC1	-1.9%	40.7%	21%	17%	5.21%	67.4%	11.2%	12.9%	9.79%	7.87%	57.4%	53.8%	45.6%	Dose-dependent effect	60 nM	44.5%	41.7%	IC50 (L02): 45800 nM
Nc1ccn([C@@H]2O[C@H](CO)[C@@H](O)[C@@H]2O)c(=O)n1 [CYTARABINE]	-1.76%	44.5%	24%	16.1%	3.02%	63.1%	18.8%	25.4%	13.3%	13%	–	–	–	–	–	–	–	IC50 (HeLa [17]): 950 nM
COC(=O)CSC(=S)N1CCN(C2=C(Br)C(=O)O[C@@H]2O[C@@H]2C[C@H](C)CC[C@H]2C(C)C)CC1	0.87%	40.1%	21.4%	9.68%	6.98%	64.5%	15%	26.6%	11.1%	4.41%	36.9%	35.3%	8.57%	Dose-dependent effect	320 nM	10.9%	11.3%	–
CC(C)[C@@H]1CC[C@@H](C)C[C@H]1O[C@H]1OC(=O)C(Br)=C1N1CCN(C(=S)SCc2ccccc2)CC1	-3.31%	39.2%	20.9%	17%	7.48%	75%	15.6%	25.8%	15%	9.09%	45%	46.4%	32%	Dose-dependent effect	260 nM	37.5%	43.5%	Activity (SMMC-7721 [18]): 7.72 - 9.59%; Activity (SMMC-7721 [19]): 8.98 - 11.36%; Activity (SMMC-7721 [20]): Dose-dependent effect; Activity (SMMC-7721 [21]): 4.01 - 5.07%; Activity (SMMC-7721 [22]): 2.17 - 4.01%; Activity (SMMC-7721 [23]): 2.75 - 3.41%; Activity (SMMC-7721 [24]): 1.29 - 4.56%; Activity (SMMC-7721 [25]): 81.84 - 83.6%; Activity (SMMC-7721 [26]): 6.06 - 6.14%; Activity (SMMC-7721 [27]): 18.99 - 20.66%; Activity (SMMC-7721 [28]): Dose-dependent effect; Activity (SMMC-7721 [29]): 5.56 - 7.39%; Activity (SMMC-7721 [30]): 85.91 - 89.74%; Activity (SMMC-7721 [31]): 64.53 - 65.54%
